This note sets out measurements from patent publication US20180369268A1, “METHODS FOR IDENTIFYING INHIBITORS OF "STIMULATOR OF INTERFERON GENE"- DEPENDENT INTERFERON PRODUCTION” (ADURO BIOTECH, INC., priority 2015, published 2018).

Structures are written as SMILES.

T1 sequence (Q86WV6 whole entry R71H/G230A/H232R/R293Q): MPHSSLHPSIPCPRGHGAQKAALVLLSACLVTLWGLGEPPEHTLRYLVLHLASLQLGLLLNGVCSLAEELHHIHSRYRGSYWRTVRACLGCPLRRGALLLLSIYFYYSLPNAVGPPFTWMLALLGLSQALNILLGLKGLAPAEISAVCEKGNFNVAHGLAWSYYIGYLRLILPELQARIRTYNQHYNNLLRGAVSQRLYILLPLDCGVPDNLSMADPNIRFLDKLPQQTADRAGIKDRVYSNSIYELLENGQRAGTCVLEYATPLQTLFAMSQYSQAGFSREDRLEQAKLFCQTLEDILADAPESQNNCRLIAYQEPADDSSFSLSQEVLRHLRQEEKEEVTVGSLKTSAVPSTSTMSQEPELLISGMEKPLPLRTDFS

One test addresses T1, STING in THP1 cells (HAQ allele) (Homo sapiens, UniProt Q86WV6, G230A/H232R/R293Q/R71H).
T1 construct: host or cells: THP-1 dual reporter cells
Description: THP-1 competition assay with STING agonist 2′3′-RR-(A)(A) (IRF-3 luciferase reporter). The format is cell-based.
Settings: not given
As to the method:
The scaffold molecules and STING inhibitory compounds as described herein are assayed for their ability to inhibit the induction of STING dependent IFN-β production by an agonist compound in a competition assay. Relative induction of IRF-3 signaling in THP-1 cells (HAQ allele) was measured after stimulating the cells with a mix of a scaffold molecule (or any putative STING antagonist) titrated against a constant concentration of the STING agonist 2′3′-RR-(A)(A) in PB buffer (50 mM HEPES pH 7.5, 100 mM KCl, 3 mM MgCl2, 0.1 mM DTT, 85 mM sucrose, 0.2% BSA, 1 mM ATP, 0.1 mM GTP).
One day prior to performing the assay, THP-1 dual (Invivogen) reporter cells were plated at 500,000 cells/mL in 200 μL per well in a 96-well plate and differentiated overnight with 3 μg/mL phorbal myristate acetate in RPMI medium 1640 (4.5 g/L D-glucose, 2.383 g/L HEPES, 300 mg/L L-glutamine, 1.5 g/L sodium bicarbonate, 110 mg/L sodium pyruvate, 10% heat-inactivated fetal bovine serum, 1× penicillin/streptomycin, 0.1 mg/mL normocin).
On the day of the assay, the media was removed from the wells and replaced with 150 μL of fresh media. The titrations against 2′ 3′-RR-(A)(A) in a final volume of 100 μL were made as follows: two-fold dilutions (2,000 μM-3.9 μM) of the scaffold molecule into PB buffer containing 100 μM 2′3′-RR-(A)(A) for a final concentration of 50 μM 2′3′-RR-(A)(A). Compounds were tested in biological triplicate.
The cells were then stimulated with 25 μL of each titration for 30 minutes at 37° C. in a CO2 incubator. After stimulating, the cells were washed twice, first with 100 μL and then 150 μL of fresh media. After washing, 150 μL of media was added to each well and the cells were incubated for 17 hours overnight at 37° C. in a CO2 incubator.
To detect IRF-3 signaling, 50 μL of luciferase substrate (Invivogen QUANTI-Luc coelenterazine-based luminescence reagent reconstituted in 25 mL water) was added to 10 μL of supernatant from each well in a 96-well white opaque plate. Luminescence was measured using a SpectraMax M3 plate reader (Molecular Devices) and relative fold-induction was calculated as the values obtained from wells containing both the scaffold molecule and 2′3′-RR-(A)(A) divided by the values obtained from wells containing 2′3′-RR-(A)(A) alone. The average of the relative fold-induction was plotted against the log concentration of the antagonist. Agonist compounds 2′3′-RR-(G)(A) and RR-(A)(A) were run as controls in this assay (see FIGS. 2A and 2B).
The results are provided for control compounds in FIGS. 2A and 2B and scaffold molecules in FIGS. […]: 2′3′-SR-(3′OTBS-A)(2′F-A) (FIG. 3A, Comp. 6a), SR-(2′F-A)(2′OTBS-A) (FIG. 3B, Comp. 18a), RR-(2,6-DAP)(2,6-DAP) (FIG. 3C, Comp. 23), RS-(2,6-DAP)(2,6-DAP) (FIG. 3D, Comp. 23a), (6-O-propargyl-G)(G) (FIG. 3E, Comp. 25), RR-(2′F-ibG)(2′F-ibG) (FIG. 3F, Comp. 32), RR-(2′F-C)(2′F-A) (FIG. 3G, Comp. 37), RS-(2′F-C)(2′F-A) (FIG. 3H, Comp. 37a), 3′2′-RR-(ibG)(BzA) (FIG. 3I, Comp. 42), 3′2′-SS-(G)(A) (FIG. 3J, Comp. 43), dithio-3′2′-(2′OTBS-G)(3′OTBS-A) isomer 1 (FIG. 3K, Comp. 49, isomer 1), dithio-3′2′-(2′OTBS-G)(3′OTBS-A) isomer 2 (FIG. 3L, Comp. 49, isomer 2), Beta-L-SS-(A)(A) (FIG. 3M, Comp. 48), Beta-L-RS-(A)(A) (FIG. 3N, Comp. 48a), and Beta-L-RR-(A)(A) (FIG. 3O, Comp. 48b). Isomer 1 and 2 of Compound 49 are different isomers, and are each one of compound 49a, 49b, 49c or 49d.
What is called IC50 is the concentration at which inhibition is half-maximal. As for `CC(C)(C)[Si](C)(C)O[C@@H]1[C@@H]2OP(=O)(S)OC[C@H]3O[C@@H](n4cnc5c(N)ncnc54)[C@H](OP(=O)(S)OC[C@H]2O[C@H]1n1cnc2c(=O)[nH]c(N)nc21)[C@@H]3O[Si](C)(C)C(C)(C)C` (single isomer, unassigned) [compound 49 isomer 1, dithio-3′2′-(2′OTBS-G)(3′OTBS-A) isomer 1], the IC50 came out at 109 µM.
`CC(C)(C)[Si](C)(C)O[C@@H]1[C@@H]2OP(=O)(S)OC[C@H]3O[C@@H](n4cnc5c(N)ncnc54)[C@H](OP(=O)(S)OC[C@H]2O[C@H]1n1cnc2c(=O)[nH]c(N)nc21)[C@@H]3O[Si](C)(C)C(C)(C)C` (single isomer, unassigned) [compound 49 isomer 2, dithio-3′2′-(2′OTBS-G)(3′OTBS-A) isomer 2] returned an IC50 of 420 µM.
The same measure, in the same setting: for `CC(C)(C)[Si](C)(C)O[C@@H]1[C@@H]2O[P@](=O)(S)OC[C@H]3O[C@@H](n4cnc5c(N)ncnc54)[C@H](F)[C@@H]3O[P@@](=O)(S)OC[C@H]2O[C@H]1n1cnc2c(N)ncnc21` [Compound 18a, (2R,3R,3aR,5R,7aR,9R,10R,10aR,12S,14aR)-2,9-bis(6-amino-9H-purin-9-yl)-3-((tert-butyldimethylsilyl)oxy)-10-fluoro-5,12-dimercaptooctahydro-2H,7H-difuro[3,2-d:3′,2′-j][1,3,7,9]tetraoxa[2,8]diphosphacyclododecine 5,12-dioxide] the value was 2110 µM.

A further test deals with T2, hSTING HAQ allele (Homo sapiens, UniProt Q86WV6, G230A/H232R/R293Q).
T2 construct: DNA encoding amino acids 140-379 (amino acid numbering corresponding to Swiss Prot Q86WV6); 6xHIS-SUMO (with TEV site) (N, cleaved yes); made in house; host or cells: Rosetta2 (DE3) E. coli
T2 sequence (Q86WV6 140-379 G230A/H232R/R293Q): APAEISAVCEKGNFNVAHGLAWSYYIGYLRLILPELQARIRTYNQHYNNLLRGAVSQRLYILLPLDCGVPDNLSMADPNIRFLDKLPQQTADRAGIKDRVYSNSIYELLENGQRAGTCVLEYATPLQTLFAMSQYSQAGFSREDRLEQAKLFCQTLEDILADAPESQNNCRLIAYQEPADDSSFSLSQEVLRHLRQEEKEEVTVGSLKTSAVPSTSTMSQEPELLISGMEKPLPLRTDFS
Description: Differential scanning fluorometry (DSF) Tm shift with purified STING AA140-379. It is filed as binding. Particulars: DSF, ligand 1 mM, 1 mg/ml STING AA140-379; read-out: hSTING Tm Shift HAQ. The source says: DNA encoding amino acids 140-379 (amino acid numbering corresponding to Swiss Prot Q86WV6) was amplified from plasmids containing the full length sequence of human STING alleles via polymerase chain reaction with the following primers: forward […] (SEQ ID NO: 9) and reverse […] (SEQ ID NO: 10). STING variant alleles were assigned according to Yi, et al, (2013), PLoS One, 8(10), e77846 (DOI: 10.1371/journal.pone.0077846. PCR products were cloned into bacterial expression vector encoding a N-terminal hexa-histidine affinity tag (6×HIS) followed by a small ubiquitin-like modifier (SUMO) solubility sequence (Butt, et al, (2005) Protein expression and purification 43.1, 1-9) and tobacco etch virus protease cleavage site (TEV) using ligation independent cloning (Aslanidis, et al, (1990) Nucleic acids research, 18.20, 6069-6074).
Plasmids encoding 6×HIS-SUMO-TEV-STING amino acids 140-379 were transformed into Rosetta2 (DE3) E. coli cells (EMD Millipore) for protein expression. Cells were grown in lysogeny broth at 37° C. until a […] absorbance of 0.6 was reached. Cells were then transferred to 18° C. and protein expression was induced overnight by the addition of isopropyl β-D-1-thiogalactopyranoside to the media at a concentration of 0.25 mM. Cells were harvested by centrifugation at 6,000 times gravity for 10 minutes. Cell pellets were re-suspended on ice in a buffer containing 50 mM Tris hydrochloride (Tris-HCl) pH 7.5, 500 mM sodium chloride (NaCl), 20 mM imidazole, 10% glycerol, 1 mM tris(2-carboxyethyl)phosphine hydrochloride (TCEP) and protease inhibitor tablet (Pierce) (Buffer A). Cells were lysed using an S-450D sonifier (Emmerson industrial) on ice. Cell lysate was centrifuged at 15,000 times gravity for 30 minutes at 4° C. Soluble material was applied to nickel-nitrilotriacetic acid (Ni-NTA) coupled Sepharose CL-6B (Qiagen) for 1 hour with gentle rocking at 4° C. After transfer to a gravity flow poly-prep column (Bio-Rad), resin was washed extensively in buffer A. Protein was eluted from the column in a buffer containing 20 mM Tris-HCl pH 7.5, 150 mM NaCl, 300 mM imidazole, 10% glycerol and 0.5 mM TCEP. To remove the 6×HIS-SUMO tag eluted protein was mixed with TEV protease (Sigma) at a ratio of 1:250 (w:w) and dialyzed overnight against a buffer containing 20 mM Tris-HCl pH 7.5, 150 mM NaCl, 5 mM imidazole, 10% glycerol and 0.5 mM TCEP. TEV protease and 6×HIS-SUMO tags were depleted by the addition of Ni-NTA resin (Qiagen) to the sample, purified STING amino acids 140-379 was collected by removal of the resin using a poly-prep column STING AA140-379 was concentrated with a 10,000 Dalton molecular weight cutoff centrifuge concentrator (EMD Millipore) to a final concentration of approximately 10 mg/ml. Protein was aliquoted, flash frozen in liquid nitrogen and stored at −80° C. until use.
Differential scanning fluorometry (DSF) is a technique that measures the ability of ligands to bind to and stabilize purified proteins (Niesen, et al, (2007) Nature protocols 2.9, 2212-2221). The protein is heated in the presence of a dye that binds to and fluoresces in hydrophobic environments. The protein is thermally denatured by heating resulting in increased dye binding to the unfolded protein and fluorescence. The temperature midpoint (Tm) of a proteins denaturation is established by calculating the half maximal value of the denaturation curve. The temperature midpoint of the protein in the presence of a ligand is directly related to the affinity of the ligand for the protein and therefore its ability to stabilize the protein at higher temperatures.
DSF was performed in a 20 μL reaction comprising 20 mM Tris-HCl pH 7.5, 150 mM NaCl, 1:500 dilution of SYPRO Orange (Life Technologies), 1 mg/ml purified STING AA140-379 protein and ligand at a concentration of 1 mM. Wild type hSTING, HAQ allele hSTING and/or REF allele hSTING were used with scaffold molecules of the invention as listed in Table 2.
(In DSF a fluorescence change marks the thermal transition of the protein.)
In the case of `CC(C)C(=O)Nc1nc2c(ncn2[C@@H]2O[C@@H]3CO[P@@](=O)(S)O[C@H]4[C@@H](F)[C@H](n5cnc6c(=O)[nH]c(NC(=O)C(C)C)nc65)O[C@@H]4CO[P@](=O)(S)O[C@H]3[C@H]2F)c(=O)[nH]1` [Compound 32a, N,N′-(((2R,3R,3aR,5R,7aR,9R,10R,10aR,12S,14aR)-3,10-difluoro-5,12-dimercapto-5,12-dioxidooctahydro-2H,7H-difuro[3,2-d:3′,2′-j][1,3,7,9]tetraoxa[2,8]diphosphacyclododecine-2,9-diyl)bis(6-oxo-6,9-dihydro-1H-purine-9,2-diyl))bis(2-methylpropanamide)], the ΔTm at 1000 µM is 9.9 °C.
As for `CC(C)C(=O)Nc1nc2c(ncn2[C@@H]2O[C@@H]3CO[P@](=O)(S)O[C@@H]4[C@H](O)[C@@H](CO[P@@](=O)(S)O[C@H]3[C@H]2O)O[C@H]4n2cnc3c(NC(=O)c4ccccc4)ncnc32)c(=O)[nH]1` [Compound 42a, dithio-[RP, SP]-cyclic-[ibG(3′,5′)p-BzA(2′,5′)p]], the ΔTm at 1000 µM was found to be 4.2 °C.
Same read-out and setting: for `C#CCOc1nc(N)nc2c1ncn2[C@@H]1O[C@@H]2COP(=O)(O)O[C@H]3[C@@H](O)[C@H](n4cnc5c(OCC#C)nc(N)nc54)O[C@@H]3COP(=O)(O)O[C@H]2[C@H]1O` [compound 26, (2R,3R,3aS,7aR,9R,10R,10aS,14aR)-2,9-bis(2-amino-6-(prop-2-yn-1-yloxy)-9H-purin-9-yl)-3,5,10,12-tetrahydroxyoctahydro-2H,7H-difuro[3,2-d: 3′,2′-j][1,3,7,9]tetraoxa[2,8]diphosphacyclododecine 5,12-dioxide] the value was 5.4 °C.

Still in this test, the particulars now being: read-out: hSTING Tm Shift HAQ.
For `CC(C)(C)[Si](C)(C)O[C@H]1[C@H]2O[P@](=O)(S)OC[C@H]3O[C@@H](n4cnc5c(N)ncnc54)[C@H](F)[C@@H]3O[P@](=O)(S)OC[C@H]1O[C@H]2n1cnc2c(N)ncnc21` [Compound 6, dithio-[RP, RP]-cyclic-[3′OTBS-A(2′,5′)p-2′F-A(3′,5′)p]], the ΔTm at 1000 µM was 18.1 °C.
With `CC(C)(C)[Si](C)(C)O[C@H]1[C@H]2O[P@](=O)(S)OC[C@H]3O[C@@H](n4cnc5c(N)nc(N)nc54)[C@H](O)[C@@H]3O[P@](=O)(S)OC[C@H]1O[C@H]2n1cnc2c(N)ncnc21` [Compound 12, dithio-[RP, RP]-cyclic-[A(2′,5′)p-2,6-DAP(3′,5′)p]], the ΔTm at 1000 µM came to 14.3 °C.
In the case of `CC(C)(C)[Si](C)(C)O[C@H]1[C@H]2O[P@@](=O)(S)OC[C@H]3O[C@@H](n4cnc5c(N)nc(N)nc54)[C@H](O)[C@@H]3O[P@](=O)(S)OC[C@H]1O[C@H]2n1cnc2c(N)ncnc21` [Compound 12a, dithio-[SP, RP]-cyclic-[A(2′,5′)p-2,6-DAP(3′,5′)p]], the ΔTm at 1000 µM worked out at 14.5 °C.
